PubChem BioAssay (NCI)
Several values for one entry are separate records, joined by “and”; a condition that tells them apart may be missing. Equal values may be shown once.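 Growth conditions: 96-well plates. Treatment: test compound, 48 hours, 5 concentrations. Analysis: linear interpolation between bracketing concentrations; unreached endpoints set to highest concentration. Abbreviation: GI50, concentration required for 50% inhibition of growth. At the TGI there is no net growth.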

Experiments:
Assay in all cases: growth of human tumour cells (NCI), 48 h
BT-549 breast = tested on: BT-549 breast
CAKI-1 renal = tested on: CAKI-1 renal
CCRF-CEM leukemia = tested on: CCRF-CEM leukemia
HCT-15 colon = tested on: HCT-15 colon
HL-60(TB) leukemia = tested on: HL-60(TB) leukemia
IGROV1 ovarian = tested on: IGROV1 ovarian
LOX IMVI melanoma = tested on: LOX IMVI melanoma
NCI-H522 lung = tested on: NCI-H522 lung
T-47D breast = tested on: T-47D breast
UO-31 renal = tested on: UO-31 renal

Structure (SMILES)	TGI (BT-549 breast)	TGI (CAKI-1 renal)	TGI (CCRF-CEM leukemia)	TGI (HCT-15 colon)	TGI (HL-60(TB) leukemia)	TGI (IGROV1 ovarian)	TGI (LOX IMVI melanoma)	TGI (NCI-H522 lung)	TGI (T-47D breast)	TGI (UO-31 renal)	GI50 (BT-549 breast)	GI50 (CAKI-1 renal)	GI50 (CCRF-CEM leukemia)	GI50 (HCT-15 colon)	GI50 (HL-60(TB) leukemia)	GI50 (IGROV1 ovarian)	GI50 (NCI-H522 lung)	GI50 (T-47D breast)	GI50 (UO-31 renal)	GI50 (LOX IMVI melanoma)
CC(SCc1ccccc1)C(=O)O (stereo not drawn)	> 100 µM	> 100 µM	> 100 µM	> 100 µM	> 100 µM	> 100 µM	> 100 µM	> 100 µM	> 100 µM	> 100 µM	–	–	–	–	–	–	–	–	–	–
C[N+](C)=c1ccc2nc3c(cc(NCCCNc4cc5oc6cc(=[N+](C)C)ccc-6nc5c5ccccc45)c4ccccc43)oc-2c1	> 64.3 µM	35.4 µM	21.7 µM	6.33 µM	9.25 µM	8.67 µM	–	4.59 µM	> 24.2 µM	14 µM	5.97 µM	12700 nM	4390 nM	1900 nM	2560 nM	1360 nM	1500 nM	3120 nM	1750 nM	–
CNC(=O)c1ccccc1Nc1nc(Nc2ccc3c(c2OC)CCC[C@H](N2CCN(CCO)CC2)C3)ncc1Cl	16 µM and > 10 µM	13.1 µM and > 10 µM	11 µM and > 10 µM	6.32 µM and 5.69 µM	2.04 µM and 2.38 µM	5.75 µM and 4.96 µM	2.77 µM and 2.48 µM	10.5 µM and 4.32 µM	17.8 µM and > 10 µM	11.6 µM and 7.69 µM	3.84 µM and 3.43 µM	690 nM and 1060 nM	2950 nM and 2970 nM	589 nM and 552 nM	403 nM and 305 nM	1020 nM and 801 nM	1890 nM and 1120 nM	2340 nM and 2950 nM	1380 nM and 714 nM	1310 nM and 1090 nM
CCn1c(-c2nonc2N)nc2c(N3CCCC3)nccc21	> 25 µM	> 25 µM	> 25 µM	> 25 µM	> 25 µM	> 25 µM	> 25 µM	> 25 µM	> 25 µM	> 25 µM	> 21.8 µM	13400 nM	18400 nM	11200 nM	24900 nM	12000 nM	10900 nM	20400 nM	7480 nM	8910 nM
N#Cc1cccc(N2C(=O)C3C4C=CC(C3C2=O)C2C(=O)N(c3cccc(C#N)c3)C(=O)C42)c1 (stereo not drawn)	72.1 µM	> 87 µM	53.7 µM	> 63.1 µM	> 100 µM	49.2 µM	> 63.1 µM	38.2 µM	> 31.6 µM	61.8 µM	–	–	–	–	–	–	–	–	–	–
Cc1ccc(C(=O)NC2CC2)cc1-c1ccc2[nH]ncc2c1	> 25 µM	> 25 µM	> 25 µM	> 25 µM	> 25 µM	> 25 µM	> 25 µM	> 25 µM	> 25 µM	> 25 µM	> 25 µM	> 25000 nM	> 25000 nM	> 25000 nM	> 25000 nM	> 25000 nM	> 25000 nM	> 25000 nM	> 22900 nM	> 25000 nM
O=C1NC(c2ccccc2)C2(C(=O)O)CN(C3CC3)c3cc(N4CCNCC4)c(F)cc3C2N1 (stereo not drawn)	> 100 µM	> 100 µM	> 100 µM	> 100 µM	> 100 µM	> 100 µM	> 100 µM	> 100 µM	> 100 µM	> 100 µM	> 100 µM	> 100000 nM	> 100000 nM	> 100000 nM	> 100000 nM	> 100000 nM	> 100000 nM	> 100000 nM	> 100000 nM	> 100000 nM
COC(C)C(O)(C(=O)OCC1=CCN2CCC(O)C12)C(C)(C)O (stereo not drawn)	> 100 µM	> 100 µM	> 100 µM	> 100 µM	> 100 µM	> 100 µM	> 100 µM	> 100 µM	> 100 µM	> 100 µM	–	–	–	–	–	–	–	–	–	–
CN(N)c1nc(N)c(C#N)c(C#N)c1C#N	> 10 µM	> 10 µM	> 10 µM	> 10 µM	> 10 µM	> 10 µM	> 10 µM	> 10 µM	> 10 µM	–	–	–	–	–	–	–	–	–	–	–
COc1ccc2nc3cc(Cl)ccc3c(Nc3cc(CN4CCCC4)c(O)c(CN4CCCC4)c3)c2n1	5.66 µM	8.44 µM	4.03 µM	10.6 µM	4.78 µM	13.6 µM	5.09 µM	3.14 µM	9.55 µM	12.7 µM	2.46 µM	2370 nM	1120 nM	1180 nM	2070 nM	2510 nM	1470 nM	2740 nM	1440 nM	1400 nM
CC1SC(c2ccc(Cl)cc2Cl)N(NC(=O)C(O)c2ccccc2)C1=O (stereo not drawn)	> 100 µM	> 100 µM	> 100 µM	> 100 µM	–	76.9 µM	> 100 µM	> 100 µM	> 100 µM	> 100 µM	> 100 µM	60100 nM	65400 nM	61300 nM	–	22700 nM	41900 nM	> 100000 nM	48900 nM	> 100000 nM
O=c1/c(=N\Nc2ccccc2)c2cccc3ccc4cccc1c4c32	> 100 µM	> 100 µM	> 100 µM	> 100 µM	–	> 100 µM	> 100 µM	> 100 µM	> 100 µM	> 100 µM	–	–	–	–	–	–	–	–	–	–
CC[C@H](C)[C@H](NC(=O)c1cccn1C)C(=O)N(C)[C@H](C[C@@H](OC(C)=O)c1nc(C(=O)N[C@@H](Cc2ccccc2)C[C@H](C)C(=O)OC)cs1)C(C)C	2.48 µM	–	> 33.3 µM	> 33.3 µM	0.208 µM	> 33.3 µM	> 33.3 µM	2.08 µM	> 33.3 µM	> 33.3 µM	0.155 µM	–	138 nM	337 nM	76 nM	228 nM	66.1 nM	94.6 nM	1300 nM	382 nM
CCCCn1c(=O)c(/C=C/C(=O)/C=C/c2cc3ccccc3n(CCCC)c2=O)cc2ccccc21	2.2 µM	3.27 µM	–	2.87 µM	6.63 µM	3.42 µM	2.7 µM	4.07 µM	6.33 µM	3.21 µM	0.702 µM	1870 nM	–	1290 nM	1710 nM	1460 nM	1860 nM	2280 nM	1530 nM	1240 nM
CCn1c2ccccc2c2cc(C(=O)c3ccc(C)c4ccccc34)ccc21	5.34 µM	> 100 µM	> 100 µM	> 100 µM	2 µM	> 100 µM	1.62 µM	–	> 100 µM	> 100 µM	0.574 µM	1610 nM	359 nM	329 nM	307 nM	635 nM	–	760 nM	716 nM	323 nM
